Measurements reported in ChEMBL document CHEMBL4219192, “Structural analysis and antioxidant activity of the glycoside from Imperial Chrysanthemum” (Bioorg Med Chem Lett, 2018).
Active and inactive are the calls of the source. The calls are words filed in the database; no cut-off is given here.

Columns and labels:
Type in all cases: functional
[1] = Antioxidant activity assessed as inhibition of superoxide radical generation up to 0.6 mg/ml after 4 mins by pyrogallol autoxidation method relative to control
[2] = Antioxidant activity assessed as hydroxyl radical scavenging activity at 2.5 mg/ml preincubated for 20 mins followed by salicylic acid addition measured after 60 mins by fenton reaction method relative to control
[3] = Antioxidant activity assessed as DPPH radical scavenging activity up to 0.6 mg/ml after 30 mins by absorbance method relative to control
[4] = Antioxidant activity assessed as ABTS radical scavenging activity at 2.5 mg/ml after 6 mins relative to control
[5] = Antioxidant activity assessed as inhibition of superoxide radical generation after 4 mins by pyrogallol autoxidation method
[6] = Antioxidant activity assessed as DPPH radical scavenging activity at 2.5 mg/ml after 30 mins by absorbance method relative to control
[7] = Antioxidant activity assessed as inhibition of superoxide radical generation at 2.5 mg/ml after 4 mins by pyrogallol autoxidation method relative to control
[8] = Antioxidant activity assessed as hydroxyl radical scavenging activity preincubated for 20 mins followed by salicylic acid addition measured after 60 mins by fenton reaction method relative to control

| Structure (SMILES) | inhibition [1] | Activity [2] [%] | Activity [3] | Activity [4] [%] | inhibition [5] | Activity [6] [%] | inhibition [7] [%] | Activity [8] |
| --- | --- | --- | --- | --- | --- | --- | --- | --- |
| O=C1O[C@H]([C@@H](O)CO)C(O)=C1O | Active | 94.9 | Active | 96.8 |  |  |  |  |
| OCOC1COC(S)(O[C@@H]2O[C@H](CO)[C@@H](O)[C@H](O)[C@H]2O)C1OCO (stereo not given in full) |  | 76.2 |  | 83.3 | Dose-dependent effect | 83.9 | 73.9 | Dose-dependent effect |
